Settings: in vivo

Row | Structure (SMILES) | Percutaneous absorption of unchanged drug into the systemic circulation | Post-dose plasma concentrations | Number of subjects with quantifiable plasma concentrations (human, 8 weeks) | Subjects with quantifiable plasma concentrations (human, 8 weeks)
1 | CC1(C)O[C@@H]2C[C@H]3[C@@H]4C[C@H](F)C5=CC(=O)C=C[C@]5(C)[C@@]4(F)[C@@H](O)C[C@]3(C)[C@]2(C(=O)CO)O1 [fluocinolone acetonide, (6,11,16)-6,9-difluoro-11,21-dihydroxy-16,17-[(1-methylethylidene)bis(oxy)]-pregna-1,-4-diene-3,20-dione] | minimal | undetectably low | – | –
2 | Oc1ccc(O)cc1 [hydroquinone, 1,4-benzenediol] | minimal | undetectably low | 8 | 18%
3 | CC1=C(/C=C/C(C)=C/C=C/C(C)=C/C(=O)O)C(C)(C)CCC1 [tretinoin, (all-E)-3,7-dimethyl-9-(2,6,6-trimethyl-1-cyclohexen-1-yl)-2,4,6,8-nonatetraenoic acid] | minimal | – | – | –

Reference: US9333172B2, “Topical skin care composition” (GALDERMA S.A., priority 2002, dated 2016)
